Experimental data: PubChem BioAssay (NCI)
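1) Cells in 96-well plates. 2) Compound, 48 h, 5 concentrations. 3) Linear interpolation between surrounding doses. 4) Unreached endpoint = highest concentration. GI50 = concentration required for 50% inhibition of growth. Definition used: TGI = concentration required for complete inhibition of growth.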

How the values were obtained:
Assay in all cases: NCI-60 cell line screen, 48 h
HCC-2998 colon = system: HCC-2998 colon
HL-60(TB) leukemia = system: HL-60(TB) leukemia
SNB-19 CNS = system: SNB-19 CNS
HOP-92 NSCLC = system: HOP-92 NSCLC
KM12 colon = system: KM12 colon
EKVX NSCLC = system: EKVX NSCLC
PC-3 prostate = system: PC-3 prostate
SW-620 colon = system: SW-620 colon
SNB-75 CNS = system: SNB-75 CNS
ACHN renal = system: ACHN renal

SMILES | TGI (HCC-2998 colon) [nM] | TGI (HL-60(TB) leukemia) [nM] | TGI (SNB-19 CNS) [nM] | TGI (HOP-92 NSCLC) [nM] | TGI (KM12 colon) [nM] | TGI (EKVX NSCLC) [nM] | TGI (PC-3 prostate) [nM] | TGI (SW-620 colon) [nM] | TGI (SNB-75 CNS) [nM] | TGI (ACHN renal) [nM] | GI50 (HCC-2998 colon) [nM] | GI50 (HL-60(TB) leukemia) [nM] | GI50 (SNB-19 CNS) [nM] | GI50 (HOP-92 NSCLC) [nM] | GI50 (KM12 colon) [nM] | GI50 (PC-3 prostate) [nM] | GI50 (SW-620 colon) [nM] | GI50 (SNB-75 CNS) [nM] | GI50 (ACHN renal) [nM] | GI50 (EKVX NSCLC) [nM]
O=C1NNC2(C(=O)N1)c1ccccc1-c1ccccc12 | > 10000 | > 10000 | > 10000 | > 10000 | > 10000 | > 10000 | > 10000 | > 10000 | > 10000 | > 10000 | – | – | – | – | – | – | – | – | – | –
O=C(Nc1cccc(-n2cc(-c3ccncc3)c(-c3ccc(Cl)c(O)c3)n2)c1)Nc1cc(C(F)(F)F)cc(C(F)(F)F)c1 | 2040 | 6630 | 6650 | 1150 | 1350 | – | 2240 | 3730 | 2300 | 4200 | 977 | 1130 | 979 | 196 | 511 | 261 | 1180 | 896 | 669 | –
O=C1c2cc3c(cc2[C@@H]2[C@H]1c1ccc([N+](=O)[O-])cc1C(=O)N2CCCBr)OCO3 | 117 | > 100000 | > 100000 | < 10 | 3950 | 501 | 184 | 3640 | 77.5 | < 10 | < 12.5 | < 10 | < 10 | < 10 | 43.7 | < 10 | < 10 | < 10 | < 10 | 37.9
Cc1ccccc1OCC(O)CN1CCN(c2ccc(Cl)cc2)CC1 (stereo not given) | 31600 | 56000 | 35500 | 22000 | 36900 | 30900 | 25900 | 33100 | 31000 | 42200 | 16700 | 17600 | 17600 | 10000 | 17800 | 11700 | 16100 | 15400 | 18800 | 13700
O=C1Nc2ccc(Br)cc2C1=Nc1cccnc1 | 40000 | 48800 | > 100000 | > 100000 | 99300 | 65100 | 41200 | 46400 | > 100000 | 39300 | – | – | – | – | – | – | – | – | – | –
CSC1=C(N)C(=O)c2[nH]cc(CO)c2C1=N | 338 | 514 | 295 | 2300 | 2200 | 1220 | 916 | 422 | 307 | – | 173 | 222 | 155 | 499 | 418 | 212 | 198 | 165 | – | 260
COc1cc(C(=O)c2c(-c3ccccc3)oc3c(OC)cccc23)cc(OC)c1OC | > 100000 | 200 | > 100000 | 21500 | > 100000 | > 100000 | > 100000 | > 100000 | 552 | > 100000 | 211 | 44.8 | 78.9 | 108 | 56.7 | 55.7 | 49.7 | 23.4 | 71.9 | 67.4
Cc1c(C(=O)Nc2ccccc2)sc2ncn(Cc3cccc(Cl)c3)c(=O)c12 | 67800 | > 100000 | > 100000 | 40500 | > 100000 | > 100000 | 49600 | > 100000 | > 100000 | > 100000 | 4670 | 16300 | 30100 | 16500 | 99000 | 16500 | 53300 | 33300 | 30200 | 30200
NCCCC[C@@H]1NC(=O)[C@H]2CCCN2C(=O)[C@H](Cc2ccccc2)CNC(=O)[C@H](Cc2ccccc2)NC1=O | > 37500 | > 37500 | > 37500 | > 37500 | > 37500 | > 37500 | > 37500 | > 37500 | > 37500 | > 37500 | > 37500 | > 11300 | > 37500 | > 37500 | > 37500 | > 37500 | > 37500 | > 37500 | > 37500 | > 37500
Cc1cc(NCCCN(C)C)c2ccc3c(ccc4c(NCCCN(C)C)cc(C)nc43)c2n1 | 323 | – | 514 | 298 | 570 | 821 | 609 | 493 | 420 | 744 | 134 | 37.5 | 181 | 66.5 | 205 | 199 | 185 | 165 | 238 | 246
CN(C)CCN1C(=O)c2c(c3c4ccccc4n4c3c3c2c2ccccc2n3C2CC(O)C(O)C4(C)O2)C1=O (stereo not given) | 10600 | 12800 | 11800 | 11900 | 10200 | 13000 | 9480 | 7700 | 8290 | 3370 | 3930 | 2470 | 1580 | 2600 | 1740 | 2050 | 407 | 1410 | 816 | 2240
COc1ccc(C/C(C)=C(/c2ccc(OCCN3CCCCC3)cc2)c2ccc(OC(=O)NCc3ccccc3)cc2)cc1 | 797 | 895 | 852 | 575 | 826 | 773 | 778 | 808 | 716 | 780 | 435 | 391 | 459 | 258 | 440 | 398 | 419 | 355 | 434 | 370
COc1cccc(N2C(=O)C3c4[nH]c5ccccc5c4C4CCCC4C3C2=O)c1 (stereo not given) | > 10000 | > 10000 | > 10000 | > 10000 | > 10000 | > 10000 | > 10000 | > 10000 | 5770 | > 10000 | – | – | – | – | – | – | – | – | – | –
